Reference: patent publication US20130005660A1, “Plasma Activation of Biological Materials for Surface Modification” (ORTHOBOND, INC., priority 2011, published 2013)

Test: Stability of gentamicin in 0.25M HCl under autoclave conditions
Format: physicochemical

**Q.** Which stability of gentamicin does the source give for gentamicin here?
**A.** The stability of gentamicin was “No significant loss of gentamicin detection”.
